Publication PMC6440935, “Characterization and phase I study of CLR457, an orally bioavailable pan-class I PI3-kinase inhibitor” (Investigational New Drugs, 2018)
Where two headings read alike, the source gives them in different places.

[1] = drug-related, All Patients, N = 31
[2] = drug-related, all patients N = 31
[3] = suspected related, all patients

SMILES: C[C@H]1OC(=O)N(c2cc(-c3cnc(N)nc3C(F)(F)F)nc(N3CCOCC3)n2)[C@H]1CO [CLR457]
- Dehydration, All Grade (drug-related, 100 mg, N = 11): 1 (9.1) n (%)
- Dehydration, Grade ≥ 3 (drug-related, 100 mg, N = 11): 0 n (%)
- Diarrhea, All Grade (drug-related, 100 mg, N = 11): 5 (45.5) n (%)
- Diarrhea, Grade ≥ 3 (drug-related, 100 mg, N = 11): 1 (9.1) n (%)
- Dry mouth, All Grade (drug-related, 100 mg, N = 11): 1 (9.1) n (%)
- Dry mouth, Grade ≥ 3 (drug-related, 100 mg, N = 11): 0 n (%)
- Dry skin, All Grade (drug-related, 100 mg, N = 11): 1 (9.1) n (%)
- Dry skin, Grade ≥ 3 (drug-related, 100 mg, N = 11): 0 n (%)
- Dysgeusia, All Grade (drug-related, 100 mg, N = 11): 3 (27.3) n (%)
- Dysgeusia, Grade ≥ 3 (drug-related, 100 mg, N = 11): 0 n (%)
- Fatigue, All Grade (drug-related, 100 mg, N = 11): 4 (36.4) n (%)
- Fatigue, Grade ≥ 3 (drug-related, 100 mg, N = 11): 1 (9.1) n (%)
- Headache, All Grade (drug-related, 100 mg, N = 11): 1 (9.1) n (%)
- Headache, Grade ≥ 3 (drug-related, 100 mg, N = 11): 0 n (%)
- Hyperglycemia, All Grade (drug-related, 100 mg, N = 11): 4 (36.4) n (%)
- Hyperglycemia, Grade ≥ 3 (drug-related, 100 mg, N = 11): 1 (9.1) n (%)
- Hypomagnesaemia, All Grade (drug-related, 100 mg, N = 11): 1 (9.1) n (%)
- Hypomagnesaemia, Grade ≥ 3 (drug-related, 100 mg, N = 11): 0 n (%)
- Maculo-papular rash, All Grade (drug-related, 100 mg, N = 11): 7 (63.6) n (%)
- Maculo-papular rash, Grade ≥ 3 (drug-related, 100 mg, N = 11): 5 (45.5) n (%)
- Nausea, All Grade (drug-related, 100 mg, N = 11): 4 (36.4) n (%)
- Nausea, Grade ≥ 3 (drug-related, 100 mg, N = 11): 0 n (%)
- Pneumonitis, All Grade (drug-related, 100 mg, N = 11): 2 (18.2) n (%)
- Pneumonitis, Grade ≥ 3 (drug-related, 100 mg, N = 11): 2 (18.2) n (%)
- Pruritus, All Grade (drug-related, 100 mg, N = 11): 3 (27.3) n (%)
- Pruritus, Grade ≥ 3 (drug-related, 100 mg, N = 11): 0 n (%)
- Pyrexia, All Grade (drug-related, 100 mg, N = 11): 3 (27.3) n (%)
- Pyrexia, Grade ≥ 3 (drug-related, 100 mg, N = 11): 0 n (%)
- Rash, All Grade (drug-related, 100 mg, N = 11): 3 (27.3) n (%)
- Rash, Grade ≥ 3 (drug-related, 100 mg, N = 11): 1 (9.1) n (%)
- Stomatitis, All Grade (drug-related, 100 mg, N = 11): 9 (81.8) n (%)
- Stomatitis, Grade ≥ 3 (drug-related, 100 mg, N = 11): 0 n (%)
- Vomiting, All Grade (drug-related, 100 mg, N = 11): 2 (18.2) n (%)
- Vomiting, Grade ≥ 3 (drug-related, 100 mg, N = 11): 0 n (%)
- Weight decreased, All Grade (drug-related, 100 mg, N = 11): 0 n (%)
- Weight decreased, Grade ≥ 3 (drug-related, 100 mg, N = 11): 0 n (%)
- Asthenia, All Grade [1]: 3 (9.7) n (%)
- Asthenia, Grade ≥ 3 [1]: 0 n (%)
- Chills, All Grade [1]: 2 (6.5) n (%)
- Chills, Grade ≥ 3 [1]: 0 n (%)
- Colitis, All Grade [1]: 2 (6.5) n (%)
- Colitis, Grade ≥ 3 [1]: 2 (6.5) n (%)
- Cough, All Grade [1]: 2 (6.5) n (%)
- Cough, Grade ≥ 3 [1]: 0 n (%)
- Decreased appetite, All Grade [1]: 7 (22.6) n (%)
- Decreased appetite, Grade ≥ 3 [1]: 0 n (%)
- Decreased neutrophil count, All Grade [1]: 2 (6.5) n (%)
- Decreased neutrophil count, Grade ≥ 3 [1]: 1 (3.2) n (%)
- Dehydration, All Grade [1]: 2 (6.5) n (%)
- Dehydration, Grade ≥ 3 [1]: 1 (3.2) n (%)
- Diarrhea, All Grade [1]: 12 (38.7) n (%)
- Diarrhea, Grade ≥ 3 [1]: 2 (6.5) n (%)
- Dry mouth, All Grade [1]: 2 (6.5) n (%)
- Dry mouth, Grade ≥ 3 [1]: 0 n (%)
- Dry skin, All Grade [1]: 2 (6.5) n (%)
- Dry skin, Grade ≥ 3 [1]: 0 n (%)
- Dysgeusia, All Grade [1]: 4 (12.9) n (%)
- Dysgeusia, Grade ≥ 3 [1]: 0 n (%)
- Fatigue, All Grade [1]: 9 (29.0) n (%)
- Fatigue, Grade ≥ 3 [1]: 1 (3.2) n (%)
- Headache, All Grade [1]: 2 (6.5) n (%)
- Headache, Grade ≥ 3 [1]: 0 n (%)
- Hyperglycemia, All Grade [1]: 7 (22.6) n (%)
- Hyperglycemia, Grade ≥ 3 [1]: 1 (3.2) n (%)
- Hypomagnesaemia, All Grade [1]: 2 (6.5) n (%)
- Hypomagnesaemia, Grade ≥ 3 [1]: 0 n (%)
- Maculo-papular rash, All Grade [1]: 11 (35.5) n (%)
- Maculo-papular rash, Grade ≥ 3 [1]: 8 (25.8) n (%)
- Nausea, All Grade [1]: 9 (29.0) n (%)
- Nausea, Grade ≥ 3 [1]: 0 n (%)
- Pneumonitis, All Grade [1]: 2 (6.5) n (%)
- Pneumonitis, Grade ≥ 3 [1]: 2 (6.5) n (%)
- Pruritus, All Grade [1]: 5 (16.1) n (%)
- Pruritus, Grade ≥ 3 [1]: 0 n (%)
- Pyrexia, All Grade [1]: 4 (12.9) n (%)
- Pyrexia, Grade ≥ 3 [1]: 0 n (%)
- Rash, All Grade [1]: 6 (19.4) n (%)
- Rash, Grade ≥ 3 [1]: 2 (6.5) n (%)
- Stomatitis, All Grade [1]: 14 (45.2) n (%)
- Stomatitis, Grade ≥ 3 [1]: 0 n (%)
- Vomiting, All Grade [1]: 5 (16.1) n (%)
- Vomiting, Grade ≥ 3 [1]: 0 n (%)
- Weight decreased, All Grade [1]: 2 (6.5) n (%)
- Weight decreased, Grade ≥ 3 [1]: 0 n (%)
- Decreased appetite, any grade [2]: 22.6%
- Diarrhea, any grade [2]: 38.7%
- Fatigue, any grade [2]: 29%
- Hyperglycemia, any grade [2]: 22.6%
- Maculo-papular rash, any grade [2]: 35.5%
- Nausea, any grade [2]: 29%
- Stomatitis, any grade [2]: 45.2%
- Drug-related AEs leading to discontinuation of study treatment (in vivo): 16.1%
- SAEs suspected to be related to the study treatment (in vivo): 22.6%
- Patients with DLTs (of 31 patients treated, 5-100 mg QD): 4 patients
- SAE colitis [3]: 6.5%
- SAE diarrhea [3]: 6.5%
- SAE pneumonitis [3]: 6.5%
